Measured values from PubChem BioAssay (NCI).
Where “and” joins values, the source holds several entries; their conditions need not be identical. Identical values can stand only once.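 Cultured in 96-well plates, cells were exposed to test compound for 48 hours across five concentrations. GI50 is the concentration that inhibits growth by half. Definition used: TGI = concentration required for complete inhibition of growth.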

Key:
Experiment in all cases: NCI tumour cell line growth inhibition, 48 h
[1] = test system: ACHN renal
[2] = test system: CAKI-1 renal
[3] = test system: HL-60(TB) leukemia
[4] = test system: IGROV1 ovarian
[5] = test system: MDA-MB-435
[6] = test system: NCI/ADR-RES ovarian
[7] = test system: OVCAR-3 ovarian
[8] = test system: SF-539 CNS
[9] = test system: SK-MEL-5 melanoma
[10] = test system: UO-31 renal

| Compound | GI50 [1] | TGI [1] | GI50 [2] | TGI [2] | GI50 [3] | TGI [3] | GI50 [4] | TGI [4] | GI50 [5] | TGI [5] | GI50 [6] | TGI [6] | GI50 [7] | TGI [7] | GI50 [8] | TGI [8] | GI50 [9] | TGI [9] | GI50 [10] | TGI [10] |
| --- | --- | --- | --- | --- | --- | --- | --- | --- | --- | --- | --- | --- | --- | --- | --- | --- | --- | --- | --- | --- |
| CC(C)(C)n1cc(-c2ccnc(NCCNS(=O)(=O)c3cccc4ccccc34)c2)c(-c2cccc(F)c2)n1 | 18.9 µM | 49 µM | 16 µM | 30.8 µM | 17.5 µM | 44.5 µM | 18.6 µM | 64.3 µM | 19.1 µM | 38.7 µM | 21.4 µM | > 100 µM | 15.4 µM | 30.4 µM | 16.1 µM | 31.7 µM | 11.9 µM | 24.9 µM | 10.4 µM | 59.8 µM |
| C[C@@]12CCC[C@@](C)(C(=O)O)C1CC[C@@]13CC(=O)[C@@](CO)(CCC12)C3 (some centres not stated) | > 100 µM | > 100 µM | > 100 µM | > 100 µM | > 100 µM | > 100 µM | > 100 µM | > 100 µM | > 100 µM | > 100 µM | > 100 µM | > 100 µM | > 100 µM | > 100 µM | > 100 µM | > 100 µM | > 100 µM | > 100 µM | > 100 µM | > 100 µM |
| CN1CCN(c2cc(Nc3cc(C4CC4)[nH]n3)nc(Nc3ccc(CC(=O)NCc4cccc(F)c4)cc3)n2)CC1 | 2.01 µM | 10.6 µM | 0.823 µM | 4.74 µM | 0.713 µM | 3.06 µM | 0.237 µM | 2.97 µM | 0.44 µM | 2.63 µM | 18.8 µM | > 100 µM | 1.59 µM | 16.5 µM | 0.858 µM | 2.28 µM | 1.42 µM | 3.08 µM | 1.69 µM | 4.73 µM |
| COP1(=S)OCC2CCC[C@@H]2O1 (some centres not stated) |  | > 100 µM |  | > 100 µM |  | > 100 µM |  | > 100 µM |  | > 100 µM |  | > 100 µM |  | > 100 µM |  | > 100 µM |  | > 100 µM |  | > 100 µM |
| C=C1C(=O)O[C@H]2[C@H]1CC(=O)/C(C)=C\CC[C@@]1(C)O[C@@H]21 | 0.822 µg/mL | 2.38 µg/mL | 1.19 µg/mL | 3.45 µg/mL | 0.264 µg/mL | 4.19 µg/mL | 2.17 µg/mL | 5.8 µg/mL | 2.98 µg/mL | 7.14 µg/mL | 1.1 µg/mL | 4.45 µg/mL | 0.795 µg/mL | 3.71 µg/mL | 2.64 µg/mL | 7.16 µg/mL | 2.99 µg/mL | 8.73 µg/mL | 2.61 µg/mL | 5.85 µg/mL |
| CC(C)(C)c1nnc2n(c1=O)N=CC(c1ccc(Br)cc1)S2 (configuration not stated) | 29.6 µM | 75.9 µM | 24.7 µM | 62.5 µM | 39 µM | > 100 µM | 26.5 µM | 92.8 µM | 27.9 µM | 78.7 µM | 26.4 µM | 61.6 µM | 21.8 µM | 70.8 µM | 19.7 µM | 50.9 µM | 18.6 µM | 38.3 µM | 20.7 µM | 47.4 µM |
| Nc1c(O)c(S(=O)(=O)O)c(O)c2c1C(=O)c1ccccc1C2=O | 2.43 µM | 6.8 µM | 2.34 µM | 7.26 µM | 1.56 µM | 3.65 µM | 3.29 µM | > 100 µM | 3.33 µM | > 100 µM | 2.99 µM | 13.9 µM | 2.94 µM | 14.5 µM | 6.36 µM | 30.6 µM | 1.97 µM | 4.07 µM | 2.47 µM | 9.13 µM |
| Cc1ccc(-n2c(-c3ccc(Cl)cc3)cs/c2=N\NC(=O)COc2n[nH]c(=O)c3ccccc23)cc1 | > 100 µM | > 100 µM | 25.7 µM | 72.7 µM | > 100 µM | > 100 µM | > 100 µM | > 100 µM | > 100 µM | > 100 µM | > 100 µM | > 100 µM | > 100 µM | > 100 µM | 19.6 µM | 71.8 µM | > 100 µM | > 100 µM | > 100 µM | > 100 µM |
| Oc1ccc(SCc2ccc(NCc3ccccc3)cc2)cc1 |  | > 100 µM |  | > 100 µM |  | 68.9 µM |  | > 100 µM |  | > 100 µM |  | > 100 µM |  | > 100 µM |  | > 100 µM |  | 47.3 µM |  | 56.5 µM |
| O=[N+]([O-])c1ccc2c(c1)S(=O)c1ccccc1-2 (configuration not stated) |  | > 100 µM |  | > 100 µM |  | > 100 µM |  | > 100 µM |  | > 100 µM |  | > 100 µM |  | > 100 µM |  | > 100 µM |  | > 100 µM |  |  |
| COc1ccc(Cn2cc(Cn3c(=O)c(-c4nc5ccccc5[nH]4)cc4ccccc43)nn2)c(OC)c1OC | 0.476 µM and 0.68 µM | 1.67 µM and 4.17 µM | 0.35 µM and 0.396 µM | 1.47 µM and 3.92 µM | 0.114 µM and 0.306 µM | 50 µM and > 100 µM | 0.186 µM and 0.445 µM | 1.84 µM and 3.66 µM | 0.0821 µM and 0.0453 µM | 0.186 µM and 0.17 µM | 1.1 µM and 1.83 µM | 3.96 µM and 15.8 µM | 0.165 µM and 0.292 µM | 0.633 µM and 1.19 µM | 0.144 µM and 0.206 µM | 0.664 µM and 0.872 µM | 0.307 µM and 0.274 µM | 1.04 µM and 1.45 µM | 0.576 µM and 0.749 µM | 1.78 µM and 4.63 µM |
| Oc1ccc(-c2nc3ccc4[nH]ncc4c3c3c2CCCC3)c2cccnc12 | 0.181 µM | 3.07 µM | 0.12 µM | 0.886 µM | 0.639 µM | 3.14 µM | 0.196 µM | 4.06 µM | 0.148 µM | 2.77 µM | 0.167 µM | 4.61 µM | 0.491 µM | 7.3 µM | 0.145 µM | 1.87 µM | 0.597 µM | 1.56 µM | 0.128 µM | 0.934 µM |
| CS(=O)(=O)CS(=O)CS(=O)CS(=O)CC(NC(=O)CCC(N)C(=O)O)C(=O)O (configuration not stated) |  | > 100 µM |  | > 100 µM |  | > 100 µM |  | > 100 µM |  | > 100 µM |  | > 100 µM |  | > 100 µM |  | > 100 µM |  | > 100 µM |  | > 100 µM |
| CCCCc1nc2cc(/C=C/C(=O)NO)ccc2n1CCN(CC)CC | 0.285 µM | 1.44 µM | 0.237 µM | 0.943 µM | 0.441 µM | > 100 µM | 0.733 µM | 5.67 µM | 0.24 µM | 0.855 µM | 0.239 µM | 4.03 µM | 0.363 µM | 1.83 µM | 0.335 µM | 18.5 µM | 0.146 µM | 0.339 µM | 0.25 µM | 4.92 µM |
| COc1ccc2sc3c(NCCCNCCO)nc4ccccc4c3c(=O)c2c1 | 1.63 µM | 2.99 µM | 1.57 µM | 2.99 µM | 1.98 µM | 3.89 µM | 1.33 µM | 2.85 µM | 1.61 µM | 3.01 µM | 1.76 µM | 3.53 µM | 1.74 µM | 3.21 µM | 1.65 µM | 3.1 µM | 1.76 µM | 3.18 µM | 1.56 µM | 2.99 µM |
| COC(=O)[C@]12CC[C@@H](C)[C@H](C)[C@@H]1C1=CC[C@@H]3[C@@]4(C)C=C(O)C(=O)C(C)=C4CC[C@@]3(C)[C@]1(C)CC2 | 5.4 µM | 19.3 µM | 12.4 µM | 31.4 µM | 13.7 µM | 35.7 µM | 13.4 µM | 36.5 µM | 13.8 µM | 28.2 µM | 12.7 µM | 31.7 µM | 11.6 µM | 24.5 µM | 12.2 µM | 27.2 µM | 15.4 µM | 28.8 µM | 11.6 µM | 26.3 µM |
| CC(=O)OC1=C2C(CC3C4CC=C5CC(OC(C)=O)CCC5(C)C4CCC23C)C2C(=O)N(Cc3ccccc3)C(=O)C2C1 (configuration not stated) | 9.65 µM | > 100 µM | 4.65 µM | > 100 µM | 3.65 µM | 17.8 µM | 6.85 µM | > 100 µM | 14.5 µM | > 100 µM | 5.53 µM | 28.2 µM | 3.31 µM | 12 µM | 3.48 µM | 14.4 µM | 2.1 µM | 4.79 µM | 2.56 µM | 8.39 µM |
| COc1ccc(Nc2c[nH]c(=O)[nH]c2=O)cc1 |  | > 100 µM |  | > 100 µM |  | > 100 µM |  | > 100 µM |  | > 100 µM |  | > 100 µM |  | > 100 µM |  | > 100 µM |  | > 100 µM |  | > 100 µM |
| O=C(CC(=O)c1ccccc1NC1=Cc2ccccc2C(=O)C1=O)C(=O)NC1=C(Cl)C(=O)c2ccccc2C1=O |  | 10.7 µM |  | 24.1 µM |  | 3.42 µM |  | 17.6 µM |  | 3.36 µM |  | 7 µM |  | 7.05 µM |  | 9.11 µM |  | 2.05 µM |  | 20.4 µM |
| CC(C)(CCC(C)(C)c1ccccc1)c1ccccc1 |  | 31.7 µM |  | 48.2 µM |  | 32.5 µM |  | 79.7 µM |  | 49.9 µM |  | 36.9 µM |  | 31 µM |  | 43.6 µM |  | 28.5 µM |  |  |
| N#CC(=S)Nc1ccc(F)cc1 |  | > 100 µM |  | > 100 µM |  | 91.3 µM |  | > 100 µM |  | > 100 µM |  | > 100 µM |  | > 100 µM |  | > 100 µM |  | 75.8 µM |  |  |
